Test results published in ChEMBL document CHEMBL1201862, “PubChem BioAssay data set” (2004).
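Cultured in 96-well plates, cells were exposed to test compound for 48 hours across five concentrations. GI50 = concentration required for 50% inhibition of growth.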 The source made the active and inactive calls. Rule as the data show it: active = GI50 up to about 1.1 µM and inactive = higher.

Experiments:
Assay in all cases: DTP human tumour cell line panel, 48 h
HT-29 = test system: HT-29
OVCAR-8 = test system: OVCAR-8
SN12C = test system: SN12C
SNB-19 = test system: SNB-19
SR = test system: SR
MDA-MB-231 = test system: MDA-MB-231
NCI-H522 = test system: NCI-H522
HCC 2998 = test system: HCC 2998
HL-60 = test system: HL-60
PC-3 = test system: PC-3
OVCAR-5 = test system: OVCAR-5
KM12 = test system: KM12
HCT-15 = test system: HCT-15
IGROV-1 = test system: IGROV-1
NCI-H23 = test system: NCI-H23
BT-549 = test system: BT-549
RXF 393 = test system: RXF 393
UACC-257 = test system: UACC-257
SF-268 = test system: SF-268
SK-OV-3 = test system: SK-OV-3
SF-295 = test system: SF-295
TK-10 = test system: TK-10
SNB-75 = test system: SNB-75
CCRF-CEM = test system: CCRF-CEM
OVCAR-4 = test system: OVCAR-4
UACC-62 = test system: UACC-62
UO-31 = test system: UO-31
SK-MEL-2 = test system: SK-MEL-2
NCI/ADR-RES = test system: NCI/ADR-RES
HOP-62 = test system: HOP-62
SK-MEL-28 = test system: SK-MEL-28
SF-539 = test system: SF-539
A549 = test system: A549
Hs-578T = test system: Hs-578T
SW-620 = test system: SW-620
MOLT-4 = test system: MOLT-4
ACHN = test system: ACHN
COLO 205 = test system: COLO 205
786-0 = test system: 786-0
LOX IMVI = test system: LOX IMVI
EKVX = test system: EKVX
MDA-N = test system: MDA-N
T47D = test system: T47D
DU-145 = test system: DU-145
Malme-3M = test system: Malme-3M
NCI-H226 = test system: NCI-H226
K562 = test system: K562
SK-MEL-5 = test system: SK-MEL-5
HOP-92 = test system: HOP-92
NCI-H460 = test system: NCI-H460
OVCAR-3 = test system: OVCAR-3
CAKI-1 = test system: CAKI-1
HCT-116 = test system: HCT-116
M14 = test system: M14
MDA-MB-435 = test system: MDA-MB-435
MCF7 = test system: MCF7
U-251 = test system: U-251
RPMI-8226 = test system: RPMI-8226

O=C1CS(=O)(=O)C(c2cccc(Oc3ccccc3)c2)N1c1cccc(Cl)c1 (stereo unspecified)
GI50 (HT-29): 28.6 µM (inactive)
GI50 (OVCAR-8): 22.1 µM (inactive)
GI50 (SN12C): 31.8 µM (inactive)
GI50 (SNB-19): 43.4 µM (inactive)
GI50 (SR): 12.1 µM (inactive)
GI50 (MDA-MB-231): 29.1 µM (inactive)
GI50 (NCI-H522): 14.9 µM (inactive)
GI50 (HCC 2998): 0.16 µM (active)
GI50 (HL-60): 30 µM (inactive)
GI50 (PC-3): 20.6 µM (inactive)
GI50 (OVCAR-5): 55.1 µM (inactive)
GI50 (KM12): 26.5 µM (inactive)
GI50 (HCT-15): 22.1 µM
GI50 (IGROV-1): 19.1 µM (inactive)
GI50 (NCI-H23): 33.5 µM (inactive)
GI50 (BT-549): 29.9 µM (inactive)
GI50 (RXF 393): 23.3 µM (inactive)
GI50 (UACC-257): 17.1 µM (inactive)
GI50 (SF-268): 23.2 µM (inactive)
GI50 (SK-OV-3): 40.6 µM (inactive)
GI50 (SF-295): 33.4 µM (inactive)
GI50 (TK-10): 26.6 µM (inactive)
GI50 (SNB-75): 36.3 µM (inactive)
GI50 (CCRF-CEM): 26.1 µM (inactive)
GI50 (OVCAR-4): 26.5 µM (inactive)
GI50 (UACC-62): 12.5 µM (inactive)
GI50 (UO-31): 37.1 µM (inactive)
GI50 (SK-MEL-2): 16.3 µM (inactive)
GI50 (NCI/ADR-RES): 29.8 µM (inactive)
GI50 (HOP-62): 40.2 µM (inactive)
GI50 (SK-MEL-28): 36.6 µM (inactive)
GI50 (SF-539): 18 µM (inactive)
GI50 (A549): 37.3 µM (inactive)
GI50 (Hs-578T): 27.5 µM (inactive)
GI50 (SW-620): 24.8 µM (inactive)
GI50 (MOLT-4): 19.1 µM (inactive)
GI50 (ACHN): 24.3 µM (inactive)
GI50 (COLO 205): 18.8 µM (inactive)
GI50 (786-0): 19.8 µM (inactive)
GI50 (LOX IMVI): 15.7 µM (inactive)
GI50 (EKVX): 17.6 µM (inactive)
GI50 (MDA-N): 16.6 µM (inactive)
GI50 (T47D): 16.9 µM (inactive)
GI50 (DU-145): 66.8 µM (inactive)
GI50 (Malme-3M): 20 µM (inactive)
GI50 (NCI-H226): 27.7 µM (inactive)
GI50 (K562): 13.1 µM (inactive)
GI50 (SK-MEL-5): 15.7 µM (inactive)
GI50 (HOP-92): 11.6 µM (inactive)
GI50 (NCI-H460): 18.1 µM (inactive)
GI50 (OVCAR-3): 24.5 µM (inactive)
GI50 (CAKI-1): 25.7 µM (inactive)
GI50 (HCT-116): 13.8 µM (inactive)
GI50 (M14): 26.7 µM (inactive)
GI50 (MDA-MB-435): 13.9 µM (inactive)
GI50 (MCF7): 14.8 µM (inactive)
GI50 (U-251): 21.2 µM (inactive)

NC(Cc1ccccc1CP(=O)(O)O)C(=O)O (stereo unspecified)
GI50 (HT-29): > 100 µM (inactive)
GI50 (OVCAR-8): > 100 µM (inactive)
GI50 (SN12C): > 100 µM (inactive)
GI50 (SNB-19): > 100 µM (inactive)
GI50 (SR): > 100 µM (inactive)
GI50 (MDA-MB-231): > 100 µM (inactive)
GI50 (NCI-H522): > 100 µM (inactive)
GI50 (HCC 2998): > 100 µM (inactive)
GI50 (HL-60): > 100 µM (inactive)
GI50 (PC-3): > 100 µM (inactive)
GI50 (OVCAR-5): > 100 µM (inactive)
GI50 (KM12): > 100 µM (inactive)
GI50 (HCT-15): > 100 µM
GI50 (IGROV-1): > 100 µM (inactive)
GI50 (NCI-H23): > 100 µM (inactive)
GI50 (BT-549): > 100 µM (inactive)
GI50 (RXF 393): > 100 µM (inactive)
GI50 (UACC-257): > 100 µM (inactive)
GI50 (RPMI-8226): > 100 µM (inactive)
GI50 (SF-268): > 100 µM (inactive)
GI50 (SK-OV-3): > 100 µM (inactive)
GI50 (SF-295): > 100 µM (inactive)
GI50 (TK-10): > 100 µM (inactive)
GI50 (SNB-75): > 100 µM (inactive)
GI50 (CCRF-CEM): > 100 µM (inactive)
GI50 (OVCAR-4): > 100 µM (inactive)
GI50 (UACC-62): 53 µM (inactive)
GI50 (UO-31): > 100 µM (inactive)
GI50 (SK-MEL-2): > 100 µM (inactive)
GI50 (NCI/ADR-RES): > 100 µM (inactive)
GI50 (SK-MEL-28): > 100 µM (inactive)
GI50 (SF-539): > 100 µM (inactive)
GI50 (A549): > 100 µM (inactive)
GI50 (Hs-578T): > 100 µM (inactive)
GI50 (SW-620): > 100 µM (inactive)
GI50 (MOLT-4): > 100 µM (inactive)
GI50 (ACHN): > 100 µM (inactive)
GI50 (COLO 205): > 100 µM (inactive)
GI50 (LOX IMVI): > 100 µM (inactive)
GI50 (EKVX): > 100 µM (inactive)
GI50 (MDA-N): > 100 µM (inactive)
GI50 (T47D): 35.9 µM (inactive)
GI50 (DU-145): > 100 µM (inactive)
GI50 (K562): > 100 µM (inactive)
GI50 (SK-MEL-5): > 100 µM (inactive)
GI50 (HOP-92): > 100 µM (inactive)
GI50 (NCI-H460): > 100 µM (inactive)
GI50 (OVCAR-3): > 100 µM (inactive)
GI50 (CAKI-1): > 100 µM (inactive)
GI50 (HCT-116): > 100 µM (inactive)
GI50 (M14): > 100 µM (inactive)
GI50 (MDA-MB-435): > 100 µM (inactive)
GI50 (MCF7): > 100 µM (inactive)
GI50 (U-251): > 100 µM (inactive)
